Tested on: PBMCs from CLL patients
Test: Peptide-induced cell death, PI staining and FACS
Type: cell-based, human
Conditions: relatively high concentrations; data not shown

For `Nc1nc(F)nc2c1ncn2[C@@H]1O[C@H](CO)[C@@H](O)[C@@H]1O` [fludarabine], which “cell killing effect on PBMCs isolated from CLL patients” value is on record?
Its value is “only a weak cell killing effect”.

Source: publication PMC3789174 (Cell Death & Disease, 2013)
